Measured values taken from patent publication US11197856B2, “Bicyclic compounds and methods for their use in treating autism” (priority 2013, dated 2021).

Tests used:
layer 5 cortical neurons = assay: Intracellular whole-cell recordings of spontaneous EPSCs in acute brain slices; assay type: in vivo, mice; conditions: MeCP2-/y animals; 20 mg/kg daily; vs vehicle
ERK1/2 = assay: Phosphorylated ERK by Western blot; assay type: in vivo, mice; conditions: full brain lysates; fmr1-knockout animals vs vehicle
Protocol: Phosphorylation levels of ERK1/2 and Akt of full brain lysates were evaluated using Western blots. The mice were sacrificed and the brains removed 12 days after the last injection, and immediately after the last behavioral test. Other studies measured pERK and pAkt in blood lymphocytes. The results of Western analysis were normalized to the amount of GAPDH protein seen in each blot.

interleukin-6 = assay: PBBI in rats: IL-6 ELISA; assay type: in vivo
Text: (§1) The unilateral frontal PBBI model, which mimics the ballistic dynamics of a bullet or fragment wound to the head (Williams, 2003; Williams, 2006), was induced by stereotactic insertion of a custom probe through the right frontal cortex. A temporary cavity was formed by the rapid inflation/deflation (i.e. <40 msec) of an elastic balloon attached to the end of the probe. The PBBI apparatus consisted of a computer-controlled hydraulic pressure generator (Mitre Corp McLean, Va.), a PBBI probe and a stereotaxic frame equipped with a custom-designed probe holder as previously described (Lu, 2009; Williams, 2003). The injury severity was determined by the size of the balloon under control of the computerized hydraulic pressure. The balloon diameter calibrated to 0.63 cm expansion represented 10% of the total rat brain volume thus expressing a 10% PBBI. All surgeries were done under anaesthesia. Groups tested: Sham+vehicle, PBBI+vehicle, PBBI+cG-2-AllylP (30 mg/kg by oral gavage, 30 min post-injury, and again once daily until endpoint). AU procedures were approved by the Institutional Animal Care and Use Committee of WRAIR. Animals were housed in a facility accredited by the AAALAC.
cG-2-AllylP (or vehicle) was administered to the animals via oral gavage at a dose of 30 mg/kg.
Target proteins were quantified with interleukin 1 beta (“IL-1beta”) (GenWay Biotech GWB-SKR107) and interleukin-6 (“IL-6”) (GenWay Biotech GWB-ZZD100) ELISAs according to manufacturer's instructions. Levels were calculated and normalized to total protein concentration as determined by BCA assay (n=9-10 per group).

[1] = tested on: fmr1-knockout mice and wild-type mice; assay: Elevated Plus Maze; assay type: in vivo
Text: In another study, we used an “Elevated Plus Maze.” The Elevated Plus Maze test is one of the most widely used tests for measuring anxiety-like hyperactivity in mice. The test is based on the natural aversion of mice for open and elevated areas, as well as on their natural spontaneous exploratory behavior in novel environments. FIG. 23 depicts a photograph of a device used in this study. The apparatus consists of two open arms and two closed arms, crossed in the middle perpendicularly to each other, and a center area. The open arms are more exposed and therefore create more anxiety in the mice. Mice therefore spend more time in the closed arms and visit them more frequently. Mice were given access to all of the arms and were allowed to move freely between them. The number of entries into the open arms, the time spent in the open arms, and time spent in the center were used as indices of open space-induced anxiety.

[2] = tested on: hippocampal LTP in MeCP2 deficient mice; assay: Hippocampal long-term potentiation (fEPSP slope) in MeCP2 deficient mice; assay type: in vivo; conditions: MeCP2 deficient mice at 9 weeks; vs saline
Text: MeCP2 deficient mice have been previously reported to suffer from functional and ultrastructural synaptic dysfunction, significant impairment of hippocampus-dependent memory and hippocampal long-term potentiation (LTP) (Moretti et al. The Journal of Neuroscience. 2006. 26(1):319-327). To test the effects of the cG-2-AllylP treatment on synaptic function in the RTT model we compare hippocampal LTP in both vehicle and cG-2-AllylP-treated animals at 9 weeks of age. To do so, we measure the slope of the fEPSP as a % of baseline potential in neurons in slices of hippocampus from MeCP2 deficient mice treated with either saline or cG-2-AllylP.

BAX = assay: PBBI in rats: BAX Western blotting; assay type: in vivo; conditions: 24 hr, 3 and 7 days after PBBI
Text: as §1, with “AAALAC. […]” for “AAALAC.”
Samples were analysed at 24 hr and 3 and 7 days post-injury for all groups (sham+vehicle, PBBI+vehicle, PBBI+cG-2-AllylP). […]

Aged rats = assay: Novel Object Recognition Test (NORT) in aged rats; assay type: in vivo, male Wistar rats; conditions: 27 days after single 20 ng/animal i.c.v.
Protocol: Aged rats (male Wistar rats, 18-20 months old) were divided into four groups: two vehicle-treated (groups 1 and 3) and two G-2-AllylP treated (groups 2 and 4) (all groups n=6-8). Cyclic G-2-AllylP was synthesised by the Department of Medicinal Chemistry and dissolved in normal saline before the treatment. On day 1 a single dose of cyclic G-2-AllylP was given centrally (20 ng/animal, i.c.v.) to the animals in groups 2 and 4; saline was administered to groups 1 and 3. The memory tests using Novel Object Recognition Test started either on day 3 (groups 1 and 2) or 24 (groups 3 and 4) after the treatment. On the completion of the NORT, the rats were killed with an overdose of sodium pentobarbital and were perfused transcardially with normal saline followed by 10% formalin. Tissues collected at day 7 in groups 1 and 2, and at day 28 from groups 3 and 4. The brains were kept in the same fixative for a minimum of 2 days before being processed using a standard paraffin embedding procedure. Briefly, small blocks (10×10×3 mm) of tissue were fixed for up to 24 hrs. The blocks were then infiltrated and embedded with paraffin and cut in ribbons and mounted on slides. Slides were then stored until immunostaining was commenced. Synaptogenesis in brain tissue was examined using immunohistochemical staining. […]

`C=CC[C@]12CCCN1C(=O)CNC2=O` [cG-2-AllylP, (8aS)-Allyl-hexahydropyrrolo[1,2-a]pyrazine-1,4-dione] was tested. Which EPSC amplitude (layer 5 cortical neurons) did it give?
The EPSC amplitude was “significantly larger in amplitude”.

What about the ERK phosphorylation (ERK1/2) of the same molecule?
Its ERK phosphorylation is “significantly reduced ERK phosphorylation”.

And the IL-6 levels (interleukin-6; 24 hrs. after PBBI, 30 mg/kg oral gavage)?
The IL-6 levels was “decreased IL-6 levels”.

What about the IL-6 levels (interleukin-6; 3 days after PBBI, 30 mg/kg oral gavage once daily) of the same molecule?
The IL-6 levels was “little effect at 3 days”.

And the IL-6 levels (interleukin-6; 7 days after PBBI, 30 mg/kg oral gavage once daily)?
The IL-6 levels was “decreased IL-6 levels”.

And the “time spent in the closed arm” value ([1]; fmr1-knockout animals)?
The value was “normalized the time spent in the closed arm”.

What about the “time spent in the open arms” value ([1]; fmr1-knockout animals) of the same molecule?
The value was “normalized the time spend in the open arms”.

And the “time spent in the center” value ([1]; fmr1-knockout mice, p<0.001)?
The value was “significantly less time than vehicle-treated fmr1-knockout animals”.

What about the “time spent in the center” value ([1]; wild-type mice) of the same molecule?
The value was “slightly less time in the center than did vehicle-treated wild-type animals”.

And the “time spent in the closed arm” value ([1]; wild-type mice)?
The value was “about the same amount of time in the closed arm”.

And the “slope of fEPSP (hippocampal LTP)” value [2]?
Its value is “increases the slope of fESPS”.

And the BAX levels (BAX)?
Its BAX levels is “did not significantly alter BAX”.

What about the “novelty recognition (NORT)” value (Aged rats) of the same molecule?
The value was “trend to improve the novelty recognition”.
